We go through 17 molecules from patent US20120142771A1, “BIPHENYLACETAMIDE DERIVATIVE” (Dainippon Sumitomo Pharma Co., Ltd., priority 2008, published 2012).

Holding throughout (assay type): in vivo, mice
In assay [1] the test system is 6 Hz psychomotor seizure model. In words: 6 Hz psychomotor seizure model. The note with it: for ED50: Mus musculus; for 6 Hz (Positive number/tested number): dose 100 mg/kg, 30 minutes or 1 hour after administration. As for the experimental part: Test 4: Test of 6 Hz Psychomotor Seizure Model
Similar to Tests 1 and 2, Test 4 evaluates the anticonvulsant action of medicaments. However, unlike Tests 1 and 2, the animal model used herein represents clinical phenotypes of seizures resistant to existing antiepileptic drugs. […] After 30 minutes or an hour of administration, their corneas were electrically stimulated (6 Hz, 32 mA, 3 seconds) to induce symptoms of myoclonus in their forelimbs, Straub tail, and immobility. […] To the control mice, 0.5% tragacanth solution, 0.5% methylcellulose solution, or olive oil was administered.

Assay [2] relates to subcutaneously pentetrazol-injected model (scPTZ). In words: Subcutaneously pentetrazol-injected model (scPTZ) test. Particulars: pentetrazol 85 mg/kg s.c. after 1 hour; for responders at 50 mg/kg / responders at 100 mg/kg: Mus musculus, po, 1 h, read-out: scPTZ (positive number/tested number) (converted); for responders at 50 mg/kg / responders at 100 mg/kg / scPTZ (positive number/tested number): Slc: ddY male mice, 3 per group, observed 30 minutes for clonic convulsion; for anticonvulsant action in subcutaneously pentetrazol-injected model (scPTZ) test: mice, oral 50 or 100 mg/kg. In outline:
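Pentetrazol (85 mg/kg, s.c.) was injected one hour after oral test compound at 50 or 100 mg/kg in groups of three male Slc:ddY mice weighing 20-30 g; vehicle controls got 0.5% tragacanth or 0.5% methylcellulose.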

Assay [3] concerns maximum electroshock seizure (MES) model. In words: Maximum electroshock seizure (MES) model test. The note with it: for responders at 50 mg/kg / responders at 100 mg/kg: Mus musculus, po, 1 h; for responders at 50 mg/kg / responders at 100 mg/kg / MES (positive number/tested number): inhibition of hind limb extension; for anticonvulsant action in maximum electroshock seizure (MES) model test: mice, oral 50 or 100 mg/kg, 1 hour after administration. In outline:
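Tonic hind-limb extension was elicited by corneal electroshock (60 Hz, 25 mA, 0.2 s) 1 h after oral dosing. Test compounds were given at 50 or 100 mg/kg to groups of 3 male Slc: ddY mice (20-30 g), vehicle controls receiving 0.5% tragacanth or 0.5% methylcellulose solution.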

[4] abbreviates: 6 Hz psychomotor seizure model, mice, oral, read-out: ED50.
Where [5] appears, read: 50 mg/kg oral, Slc: ddY male mice, 3 per group, electrical stimulation 1 hour after administration, read-out: MES (positive number/tested number) (converted).
Where [6] appears, read: 100 mg/kg oral, Slc: ddY male mice, 3 per group, electrical stimulation 1 hour after administration, read-out: MES (positive number/tested number) (converted).
The mark [7] stands for this setting: 50 mg/kg oral, Slc: ddY male mice, 3 per group, electrical stimulation 1 hour after administration.
Where [8] appears, read: 100 mg/kg oral, Slc: ddY male mice, 3 per group, electrical stimulation 1 hour after administration.

SMILES strings stand for the structures. Read-outs that look alike come from different tables or passages of the source.

`NC(=O)[C@H](O)c1ccccc1-c1ccccc1` (single isomer, unassigned) [Example 207, 2-(Biphenyl-2-yl)-2R-hydroxyacetamide]: the median effective dose (ED50) in assay [1] (setting [4]) worked out at 86.6 mg/kg. The “efficacy in 6 Hz psychomotor seizure model” value in assay [1] (mice, oral administration at a dose of 100 mg/kg) was “potent efficacy”. Also, the “6 Hz (Positive number/tested number)” value in assay [1] (mice, oral) is on record as 7/10/100. In addition, the responders at 50 mg/kg in assay [2] (50 mg/kg oral) and in assay [3] (setting [5]) was 66.7% each time. In addition, the values for the responders at 100 mg/kg in assay [2] (100 mg/kg oral) and in assay [3] (setting [6]) were 66.7% and 100%, respectively. For the same molecule, the “anticonvulsant action in subcutaneously pentetrazol-injected model (scPTZ) test” value (“anticonvulsant action … (scPTZ) test” for short) in assay [2] is recorded as “anticonvulsant action was observed”. In addition, the “anticonvulsant action in maximum electroshock seizure (MES) model test” value (shortened to “anticonvulsant action … (MES) model test”) in assay [3] is listed as “anticonvulsant action was observed”.
In the case of `NC(=O)C(F)c1ccccc1-c1ccccc1` (single isomer, unassigned) [Example 209, 2-(Biphenyl-2-yl)-2-fluoroacetamide], it took a dose of 109 mg/kg to reach the 50% effect level in assay [1] (po) (ED50). The “6 Hz (Positive number/tested number)” value in assay [1] (mice, oral) is 6/10/100. Moreover, the “scPTZ (positive number/tested number)” value in assay [2] (50 mg/kg oral) and in assay [2] (100 mg/kg oral) was 2/3 each time. Moreover, the “anticonvulsant action … (scPTZ) test” value in assay [2] is “anticonvulsant action was observed”. Also, in assay [3] (setting [7]), the “MES (positive number/tested number)” value is given as 3/3. For the same molecule, the responders at 100 mg/kg in assay [3] (read-out: MES (positive number/tested number), 100 mg/kg oral, Slc: ddY male mice, 3 per group, electrical stimulation 1 hour after administration) is 100%. For the same molecule, the “anticonvulsant action … (MES) model test” value in assay [3] is listed as “anticonvulsant action was observed”.
`NC(=O)C(F)c1ccccc1-c1ccccc1` (single isomer, unassigned) [Example 210, 2-(Biphenyl-2-yl)-2-fluoroacetamide]: in assay [1] (mice, oral), the “6 Hz (Positive number/tested number)” value is recorded as 4/5/100. Also, the “scPTZ (positive number/tested number)” value in assay [2] (50 mg/kg oral) and in assay [2] (100 mg/kg oral) was 3/3 each time. For the same molecule, the “anticonvulsant action … (scPTZ) test” value in assay [2] is on record as “anticonvulsant action was observed”. For the same molecule, the “MES (positive number/tested number)” value is listed as 2/3 in assay [3] (setting [7]) and 3/3 in assay [3] (setting [8]). For the same molecule, the “anticonvulsant action … (MES) model test” value in assay [3] is “anticonvulsant action was observed”.
Regarding `NC(=O)C(O)c1ccccc1-c1cccc(F)c1` (single isomer, unassigned) [Example 211, 2-(3′-Fluorobiphenyl-2-yl)-2-hydroxyacetamide], the ED50 in assay [1] (setting [4]) came out at 100 mg/kg. The “6 Hz (Positive number/tested number)” value in assay [1] (mice, oral) is 5/10/100. Moreover, the results for the responders at 50 mg/kg in assay [2] (50 mg/kg oral) and in assay [3] (setting [5]) were 66.7% and 100%, respectively. The responders at 100 mg/kg in assay [2] (100 mg/kg oral) is 66.7%; in assay [3] (setting [6]), 100%. The “anticonvulsant action … (scPTZ) test” value in assay [2] is given as “anticonvulsant action was observed”. For the same molecule, the “anticonvulsant action … (MES) model test” value in assay [3] was “anticonvulsant action was observed”.
Turning to `NC(=O)C(O)c1ccccc1-c1cccc(F)c1` (single isomer, unassigned) [Example 212, 2-(3′-Fluorobiphenyl-2-yl)-2-hydroxyacetamide], the “6 Hz (Positive number/tested number)” value in assay [1] (mice, oral) was 1/5/100. The “scPTZ (positive number/tested number)” value in assay [2] (50 mg/kg oral) and in assay [2] (100 mg/kg oral) was 2/3 throughout. The “anticonvulsant action … (scPTZ) test” value in assay [2] is “anticonvulsant action was observed”. Besides, the “MES (positive number/tested number)” value in assay [3] (setting [7]) and in assay [3] (setting [8]) was 3/3 throughout. Further, in assay [3], the “anticonvulsant action … (MES) model test” value is listed as “anticonvulsant action was observed”.
On to `NC(=O)[C@H](O)c1ccccc1-c1cc(Cl)cc(Cl)c1` (single isomer, unassigned) [Example 215, 2-(3′,5′-Dichlorobiphenyl-2-yl)-2R-hydroxyacetamide], for which the ED50 in assay [1] (setting [4]) stood at 64.8 mg/kg. Also, the “6 Hz (Positive number/tested number)” value in assay [1] (mice, oral) is given as 7/10/100. For the same molecule, the values for the responders at 50 mg/kg in assay [2] (50 mg/kg oral) and in assay [3] (setting [5]) were 0% and 66.7%, respectively. Moreover, the responders at 100 mg/kg in assay [2] (100 mg/kg oral) and in assay [3] (setting [6]) was 66.7% in each case.
Take `NC(=O)Cc1ccccc1-c1cccc(Cl)c1` [Example 13, 2-(3′-chlorobiphenyl-2-yl)acetamide]: the “6 Hz (Positive number/tested number)” value in assay [1] (mice, oral) is recorded as 2/10/100. Besides, the responders at 50 mg/kg was 100% in assay [2] (50 mg/kg oral) and 66.7% in assay [3] (setting [5]). For the same molecule, the responders at 100 mg/kg in assay [2] (100 mg/kg oral) was 66.7%; in assay [3] (setting [6]), 100%. Also, in assay [2], the “anticonvulsant action … (scPTZ) test” value is given as “anticonvulsant action was observed”. In assay [3], the “anticonvulsant action … (MES) model test” value is reported as “anticonvulsant action was observed”.
Turning to `NC(=O)Cc1ccc(F)cc1-c1ccccc1` [Example 39, 2-(5-fluorobiphenyl-2-yl)acetamide], the “6 Hz (Positive number/tested number)” value in assay [1] (mice, oral) is on record as 1/5/100. Moreover, the responders at 50 mg/kg in assay [2] (50 mg/kg oral) was 33.3%; in assay [3] (setting [5]), 100%. The responders at 100 mg/kg in assay [2] (100 mg/kg oral) was 66.7%; in assay [3] (setting [6]) it was 100%.
For `NC(=O)Cc1ccc(F)cc1-c1ccccc1F` [Example 41, 2-(2′,5-difluorobiphenyl-2-yl)acetamide], in assay [1] (mice, oral), the “6 Hz (Positive number/tested number)” value is 4/5/100. Besides, the figures for the responders at 50 mg/kg in assay [2] (50 mg/kg oral) and in assay [3] (setting [5]) were 66.7% and 100%, respectively. Further, the responders at 100 mg/kg in assay [2] (100 mg/kg oral) was 66.7%; in assay [3] (setting [6]), 100%. The “anticonvulsant action … (scPTZ) test” value in assay [2] was “anticonvulsant action was observed”. Besides, the “anticonvulsant action … (MES) model test” value in assay [3] is reported as “anticonvulsant action was observed”.
On to `NC(=O)Cc1ccccc1-c1ccccc1` [Example 50, 2-(biphenyl-2-yl)acetamide], for which, in assay [1] (mice, oral), the “6 Hz (Positive number/tested number)” value is given as 3/5/100. The responders at 100 mg/kg was 33.3% in assay [2] (100 mg/kg oral) and 100% in assay [3] (setting [6]). The responders at 50 mg/kg in assay [3] (setting [5]) is 66.7%.
As to `CNC(=O)C(OC)c1ccccc1-c1ccccc1F` (centres unmarked) [Example 201, 2-(2′-fluorobiphenyl-2-yl)-2-methoxy-N-methylacetamide], the responders at 50 mg/kg in assay [2] (50 mg/kg oral) and in assay [3] (setting [5]) was 33.3% in each case. Moreover, the responders at 100 mg/kg in assay [2] (100 mg/kg oral) and in assay [3] (setting [6]) was 66.7% each time.
For the molecule `COC(C(=O)N(C)C)c1ccccc1-c1ccccc1F` (centres unmarked) [Example 202, 2-(2′-fluorobiphenyl-2-yl)-2-methoxy-N,N-dimethylacetamide], the responders at 50 mg/kg in assay [2] (50 mg/kg oral) was 0%; in assay [3] (setting [5]), 33.3%. For the same molecule, the responders at 100 mg/kg in assay [2] (100 mg/kg oral) is 100%; in assay [3] (setting [6]), 66.7%.
Taken in the same sequence, the figures for `COC(C(N)=O)c1ccccc1-c1ccc(F)cc1` (centres unmarked) [Example 203, 2-(4′-fluorobiphenyl-2-yl)-2-methoxyacetamide] were 66.7%, 33.3%, 100% and 66.7%.
For `CNC(=O)C(OC)c1ccccc1-c1ccc(F)cc1` (centres unmarked) [Example 204], the responders at 100 mg/kg in assay [2] (100 mg/kg oral) is 0%; in assay [3] (setting [6]), 100%. Besides, the responders at 50 mg/kg in assay [3] (setting [5]) is 0%.
As for `COC(C(=O)N(C)C)c1ccccc1-c1ccc(F)cc1` (centres unmarked) [Example 205, 2-(4′-fluorobiphenyl-2-yl)-2-methoxy-N,N-dimethylacetamide], the results for the responders at 50 mg/kg in assay [2] (50 mg/kg oral) and in assay [3] (setting [5]) were 33.3% and 0%, respectively. The responders at 100 mg/kg in assay [2] (100 mg/kg oral) was 66.7%; in assay [3] (setting [6]), 100%.
Taken in the same sequence, the figures for `COC(C(N)=O)c1ccccc1-c1cccc(Cl)c1` (centres unmarked) [Example 206, 2-(3′-chlorobiphenyl-2-yl)-2-methoxyacetamide] were 0%, 33.3%, 66.7% and 66.7%.
Take `NC(=O)[C@@H](O)c1ccccc1-c1cc(Cl)cc(Cl)c1` [Example 216, 2-(3′,5′-dichlorobiphenyl-2-yl)-2S-hydroxyacetamide]: the “scPTZ (positive number/tested number)” value in assay [2] (50 mg/kg oral) and in assay [2] (100 mg/kg oral) was 1/3 throughout. The “MES (positive number/tested number)” value in assay [3] (setting [7]) is 1/3; in assay [3] (setting [8]), 2/3.
